In patent US20240261418A1, “SOS1 DEGRADING AGENT AND PREPARATION METHOD THEREFOR AND APPLICATION THEREOF” (SHANGHAI LEADINGTAC PHARMACEUTICAL CO. LTD., priority 2021, published 2024):

Test system: KRAS G13D mutant human colorectal adenocarcinoma epithelial cells DLD-1
Assay: 3D cell proliferation inhibition assay, DLD-1
Assay type: cell-based
Settings: DLD-1, 168 h, 7 days, CTG
Description: Test Example 4: 3D Cell Proliferation Inhibition Assay
The inhibitory effect of the compounds on the proliferation of 3D cells was investigated on KRAS G12C mutant human non-small cell lung cancer cells NCI-H358 (ATCC or Stem Cell Bank, Chinese Academy of Sciences), KRAS G12D mutant human metastatic pancreatic adenocarcinoma cells AsPC-1 (ATCC), KRAS G12V mutant human lung adenocarcinoma cells NCI-H441 (ATCC), and KRAS G13D mutant human colorectal adenocarcinoma epithelial cells DLD-1 (ATCC). The specific procedures were as follows:
200 nL of compound solution diluted in a gradient was added to corresponding microwells of a 384-well low-adsorption microwell plate (Corning, 3657) using an Echo sonic pipetting system (Labcyte, Echo 550), so that the final concentration of the test compound in the reaction system was in a range of 20000 nM-0.008 nM. Then 40 μL of cells at a certain density were added to the corresponding microplate. In addition to test wells for the test compounds, both a DMSO control well and a medium control well were set, with the DMSO control well containing DMSO and cells and the medium well containing only medium. […] The plate was incubated at room temperature for 30 min and read on a microplate reader EnVision using the chemiluminescence program. […]

Row | SMILES | IC50
1 | COc1cc2nc(C)nc(N[C@H](C)c3cc(-c4c(Cl)cccc4CN(C)C)cs3)c2cc1[C@H]1CC[C@H](C(=O)N2CCN(CC3CCC4(CC3)CCN(C(=O)c3ccc(Cl)c(N5CCC(=O)NC5=O)c3)CC4)CC2)CC1 [Example 1, 1-(2-chloro-5-(9-((4-((1R,4R)-4-(4-(((R)-1-(4-(2-chloro-6-((dimethylamino)methyl)phenyl)thien-2-yl)ethyl)amino)-7-methoxy-2-methylquinazolin-6-yl)cyclohexane-1-carbonyl)piperazin-1-yl)methyl)-3-azaspiro[5.5]undecane-3-carbonyl)phenyl)dihydropyrimidine-2,4(1H,3H)-dione] | 30 to 50 nM
2 | COc1cc2nc(C)nc(N[C@H](C)c3cc(-c4c(Cl)cccc4CN(C)C)cs3)c2cc1[C@H]1CC[C@H](C(=O)N2CCC(CCOCC3CCN(C(=O)c4ccc(Cl)c(N5CCC(=O)NC5=O)c4)CC3)CC2)CC1 [Example 5, 1-(2-chloro-5-(4-((2-(1-((1R,4R)-4-(4-(((R)-1-(4-(2-chloro-6-((dimethylamino)methyl)phenyl)thien-2-yl)ethyl)amino)-7-methoxy-2-methylquinazolin-6-yl)cyclohexane-1-carbonyl)piperidin-4-yl)ethoxy)methyl)piperidine-1-carbonyl)phenyl)dihydropyrimidine-2,4(1H,3H)-dione] | 50 to 100 nM
